Measurements: patent publication US10351547B2, “Somatostatin modulators and uses thereof” (priority 2016, dated 2019)
Like-named read-outs stand apart in the source and are kept apart here.

Biological target: human SSTR2 (Homo sapiens (Human), UniProt P30874)
Assay: Human SSTR2 intracellular cAMP functional assay for agonists (HTRF)
Format: cell-based
Method in brief: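 Cells bearing human SSTR2 exposed to compound for 20 minutes at 37 °C; after lysis, cAMP measured by time-resolved fluorescence (HTRF) and converted via a standard curve. EC50 calculated from cAMP versus compound concentration.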

[1] = CHO-K1 cells stably expressing human SSTR2, NKH477-stimulated cAMP, read-out: EC50 (inhibition of cAMP activities via human SST2R)

Sequence of human SSTR2 (P30874 whole entry): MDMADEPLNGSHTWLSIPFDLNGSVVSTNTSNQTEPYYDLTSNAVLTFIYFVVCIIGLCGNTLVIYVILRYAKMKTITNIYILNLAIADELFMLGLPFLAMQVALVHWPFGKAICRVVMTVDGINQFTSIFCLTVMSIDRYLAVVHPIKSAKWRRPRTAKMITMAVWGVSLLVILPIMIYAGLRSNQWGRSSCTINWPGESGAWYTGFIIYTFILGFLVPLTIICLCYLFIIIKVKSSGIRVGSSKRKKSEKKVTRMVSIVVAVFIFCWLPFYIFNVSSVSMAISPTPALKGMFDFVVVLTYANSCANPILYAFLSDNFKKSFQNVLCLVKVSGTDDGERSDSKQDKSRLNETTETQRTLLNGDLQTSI

Row | SMILES | EC50 [µM] | EC50 [1] [µM]
1 | N#Cc1cccc(-c2cnc3ncc(-c4cc(F)cc(F)c4)c(N4CCC(N)CC4)c3c2)c1O [4-1, 3-[5-(4-aminopiperidin-1-yl)-6-(3,5-difluorophenyl)-1,8-naphthyridin-3-yl]-2-hydroxybenzonitrile] | 0.01 to 0.1 | 
2 | Cc1cc(F)cc(-c2cnc3ncc(-c4cccc(C#N)c4O)cc3c2N2CCC(N)CC2)c1 [4-2, 3-[5-(4-aminopiperidin-1-yl)-6-(3-fluoro-5-methylphenyl)-1,8-naphthyridin-3-yl]-2-hydroxybenzonitrile] |  | < 0.01
3 | Cc1cc(F)cc(-c2cnc3ncc(-c4cc(F)cc(C#N)c4O)cc3c2N2CCC(N)CC2)c1 [4-3, 3-[5-(4-aminopiperidin-1-yl)-6-(3-fluoro-5-methylphenyl)-1,8-naphthyridin-3-yl]-5-fluoro-2-hydroxybenzonitrile] |  | < 0.01
4 | Cc1cc(Cl)cc(-c2cnc3ncc(-c4cccc(C#N)c4O)cc3c2N2CCC(N)CC2)c1 [4-4, 3-[5-(4-aminopiperidin-1-yl)-6-(3-chloro-5-methylphenyl)-1,8-naphthyridin-3-yl]-2-hydroxybenzonitrile] |  | < 0.01
